In patent US20240271213A1, “METHODS AND COMPOSITIONS COMPRISING FUNCTIONAL GENOMICS OF HIBERNATING MAMMALS” (Fauna Bio Incorporated, priority 2021, published 2024):

Tests used:
H9C2 cells = experiment: Ischemia-reperfusion assay in H9C2 cells, viability by MTT; assay type: cell-based, rat; details: melatonin added at start of ischemia, control wells ~75% viable, normoxic control = 100%
Description: FIG. 17 is a graph illustrating results of an in vitro validation assay for ischemia-reperfusion injury in H9C2 cells. H9C2 cells were exposed to ischemia for […] and reperfusion for 4 hrs were contacted with differing concentrations of melatonin at the start of ischemia. Viability was measured using the MTT assay. Data are expressed as the mean +/− standard deviation in experiments performed in triplicate. * p<0.05 and ** […] compared to vehicle control.
(§1) For ischemia-reperfusion assays, de-oxygenated serum free medium was prepared by adding 1% penicillin-streptomycin into glucose-free DMEM; the medium was contacted for 5 mins with 5% CO2 and 95% N2; and the medium was then warmed in a 37° C. bath. Cells were then washed with warm PBS to completely remove normal culture medium. PBS was aspirated and deoxygenated serum free medium was added into plates (100 μl was added for each well of 96-well plate). To mimic myocardial ischemia, cells in the experiment plate were subjected to ischemia by culturing them in glucose and serum free-medium and hypoxic conditions (5% CO2 and 95% N2). […] Cell viability was determined by MTT assay The control cells were considered to be 100% viable; changes in viability in the experiment plates were measured relative to the control. […]

AC16 cells [1] = experiment: Ischemia-reperfusion assay in AC16 cells, cell damage (LDH activity); assay type: cell-based, human; details: 16 hours ischemia, 4 hours reperfusion, compound added prior to ischemia
Description: FIG. 18B is a graph showing a decrease in cell damage response (LDH activity) of AC16 cells following 16 hrs ischemia and 4 hrs reperfusion and incubated with different concentrations of Triptolide.
as §1, with “N2). Plates were placed in a hypoxia chamber and air-tight lock; the chamber was filled with 5% CO2 and 95% N2 until oxygen level is 0%, and then the chamber was placed in the incubator for a duration of ischemia time. The duration of ischemia was 21 hours for H9C2 cells; 29 hours for differentiated SH-SY5Y cells; 16 hours for AC16 cells; and 16 hours for native SH-SY5Y cells.” for “N2).”

AC16 cells [2] = experiment: Ischemia-reperfusion assay in AC16 cells, cell viability; assay type: cell-based, human; details: 16 hours ischemia, 4 hours reperfusion, compound added prior to ischemia
Description: FIG. 18A is a graph showing in vitro cell viability of AC16 cells following 16 hrs ischemia and 4 hrs reperfusion and incubated with different concentrations of a compound identified for neuroprotection, Triptolide.
as §1, with “N2). Plates were placed in a hypoxia chamber and air-tight lock; the chamber was filled with 5% CO2 and 95% N2 until oxygen level is 0%, and then the chamber was placed in the incubator for a duration of ischemia time.” for “N2).”

AC16 cells [3] = experiment: Reactive oxygen species (ROS) production in AC16 cells; assay type: cell-based, human; details: AC16 cells following incubation with compound
SH-SY5Y cells = experiment: Aβ1-42 induced toxicity in SH-SY5Y cells, viability by MTT; assay type: cell-based, human; details: Aβ1-42 peptide added, vs vehicle control
Text: Alzheimer's disease progression features the accumulation of two protein aggregates: β-amyloid (Aβ) and tau; these play crucial roles in neuronal loss or dysfunction in Alzheimer's disease. To mimic pathogenesis of Alzheimer's disease, we used in vitro cell models that focus on Aβ-induced toxicity and tau hyperphosphorylation. SH-SY5Y human neuroblastoma cells (American Type Culture Collection; ATCC) were purchased and grown in appropriate culture medium. First, OE/KD and WT SH-SY5Y cells were equally seeded in wells of 96-well plates. Human SH-SY5Y neuroblastoma cells were successfully differentiated into mature neurons by incubating cells in retinoic acid and N2 supplement for 9 days (FIG. 16). These can be distinguished from the original SH-SY5Y cells, which are prone to grow in clusters and extend short neurites at edges of the clusters. […] Aβ-induced toxicity was examined by adding Aβ1-42 peptide to both WT and OE/KD cells. Aβ1-42 induced cell death in WT cells. […] To validate potential neuroprotective compounds identified by the integrated gene networks described above, in vitro assays were conducted with SH-SY5Y cells. Aβ-induced toxicity was examined by adding Aβ1-42 peptide to cells treated with vehicle control or test compounds (FIG. 19). […] Tau hyperphosphorylation was also examined, by exposing the SH-SY5Y cells to hypothermic conditions (30° C.).

COc1ccc2[nH]cc(CCNC(C)=O)c2c1 [melatonin]
viable cells after ischemia-reperfusion (MTT) (H9C2 cells): ~90%

CC(C)[C@]12O[C@H]1[C@@H]1O[C@]13[C@]1(O[C@H]1C[C@H]1C4=C(CC[C@@]13C)C(=O)OC4)[C@@H]2O [Triptolide]
cell damage (LDH activity) after ischemia-reperfusion (AC16 cells [1]): reduced cell damage
cell viability after ischemia-reperfusion (AC16 cells [2]): increased cell viability
production of reactive oxygen species (ROS) (AC16 cells [3]): decrease production of reactive oxygen species (ROS)

CC12CC3CC(C)(C1)CC(N)(C3)C2 [Memantine]
cell viability under Aβ1-42 toxicity (MTT) (SH-SY5Y cells): increase in cell viability
